Reference: patent US20110112145A1, “Salts Of Methyl 2-((R))-(3-Chlorophenyl)((R)-1-((S)-2-(Methylamino)-3((R)-tetrahydro-2H-Pyran-3-YL)Propylcarbamoyl)Piperidin-3-YL)Methoxy)Ethylcarbamate” (priority 2008, published 2011)

How the values were obtained:
[1] = Oral bioavailability in Beagle dogs; format: in vivo, male Beagle dogs; conditions: Dog
Experimental: Oral pharmacokinetic data in male Beagle dogs was obtained for a solution formulation of Compound D and capsule formulations of Compound A-form I, Compound B-form I, and Compound C-form I. Compound D was administered by oral gavage as a clear, colorless solution in water containing 2% DMSO (final pH=3.5), which was filtered, using a 0.22 μm MILLEX-GV filter, prior to administration. The above noted Compounds A, B, and C were each administered at a dose of 5 mg/kg in gelatin capsules (1.37 mL). Blood (50 μL) was sampled at the following time intervals: 0, 20, 40, 60, 120, 180, 240, 360, 480, 600, and 1440 min.
(§1) The concentration of each compound was quantified by LC/MS/MS analysis of an aliquot (25 μL blood+25 μL water) of these samples and the overall blood exposure reported as the Dose-Normalized Area Under the Curve (DNAUC) from a concentration versus time plot and expressed in the units kilogram hours per liter (kg·h/L). All oral bioavailabilities were calculated by dividing the DNAUC from an oral segment by the DNAUC from an i.v. segment and multiplying by 100.

[2] = Oral bioavailability in Sprague-Dawley rats; format: in vivo, male Sprague-Dawley rats; conditions: for DNAUC (Dose-Normalized Area Under the Curve, blood) / Oral Bioavailability (%): Rat; for Oral Bioavailability (%): oral DNAUC / i.v. DNAUC x 100
Experimental: Oral pharmacokinetic data in male Sprague-Dawley rats was obtained for a solution formulation of Compound D and a suspension formulation of micronized Compound E. Compound D was administered by oral gavage as a clear, colorless solution in a formulation with 0.5% methylcellulose in water at a dose of 10 mg/kg (5 mL of dose solution per kg). Blood was sampled at the following time intervals: 0, 5, 15, 30, 60, 120, 180, 240, 360, 480, and 1440 min. Compound E was administered as a suspension by gastric bolus in a formulation with 1% methylcellulose in water at a dose of 5 mg/kg (10 mL of dose solution per kg). Blood (50 μL) was sampled at the following time intervals: 0, 20, 40, 60, 120, 180, 240, 360, 480, 720, 960, 1200, and 1440 min.
as §1

[3] = oral, gelatin capsule, 5 mg/kg, form I of each compound
[4] = oral, gelatin capsule, 5 mg/kg, form I of each compound, oral DNAUC / i.v. DNAUC x 100
[5] = oral gavage, solution in 0.5% methylcellulose in water, 10 mg/kg
[6] = gastric bolus, suspension of micronized compound in 1% methylcellulose in water, 5 mg/kg

SMILES: CC(=O)N[C@@H](Cc1ccccc1)C(=O)O.CN[C@H](CNC(=O)N1CCC[C@@H]([C@@H](OCCNC(=O)OC)c2cccc(Cl)c2)C1)C[C@H]1CCCOC1 [Compound B]
- DNAUC (Dose-Normalized Area Under the Curve, blood) [1, 3]: 0.40 kg·h/L
- Oral Bioavailability (%) [1, 4]: 37%

SMILES: CN[C@H](CNC(=O)N1CCC[C@@H]([C@@H](OCCNC(=O)OC)c2cccc(Cl)c2)C1)C[C@H]1CCCOC1.O=C(O)/C=C/C(=O)O [Compound D, methyl 2-((R)-(3-chlorophenyl)((R)-1-((S)-2-(methylamino)-3-((R)-tetrahydro-2H-pyran-3-yl)propylcarbamoyl)piperidin-3-yl)methoxy)ethylcarbamate fumaric acid]
- DNAUC (Dose-Normalized Area Under the Curve, blood) [2, 5]: 0.048 kg·h/L
- Oral Bioavailability (%) [2, 5]: 37%
- DNAUC (Dose-Normalized Area Under the Curve, blood) ([1]; oral gavage, solution in water containing 2% DMSO (final pH=3.5), dose not given): 0.46 kg·h/L
- bioavailability ([1]; male, Beagle, whole blood, oral gavage, solution in water containing 2% DMSO (final pH=3.5), dose not given, oral DNAUC / i.v. DNAUC x 100): 43%

SMILES: CN[C@H](CNC(=O)N1CCC[C@@H]([C@@H](OCCNC(=O)OC)c2cccc(Cl)c2)C1)C[C@H]1CCCOC1.CN[C@H](CNC(=O)N1CCC[C@@H]([C@@H](OCCNC(=O)OC)c2cccc(Cl)c2)C1)C[C@H]1CCCOC1.Cc1ccc(C(=O)O[C@@H](C(=O)O)[C@@H](OC(=O)c2ccc(C)cc2)C(=O)O)cc1 [Compound A]
- DNAUC (Dose-Normalized Area Under the Curve, blood) [1, 3]: 0.38 kg·h/L
- Oral Bioavailability (%) [1, 4]: 35%

SMILES: CN[C@H](CNC(=O)N1CCC[C@@H]([C@@H](OCCNC(=O)OC)c2cccc(Cl)c2)C1)C[C@H]1CCCOC1.O=C(O)C(=O)O [Compound C]
- DNAUC (Dose-Normalized Area Under the Curve, blood) [1, 3]: 0.64 kg·h/L
- Oral Bioavailability (%) [1, 4]: 59%

SMILES: CN[C@H](CNC(=O)N1CCC[C@@H]([C@@H](OCCNC(=O)OC)c2cccc(Cl)c2)C1)C[C@H]1CCCOC1.CN[C@H](CNC(=O)N1CCC[C@@H]([C@@H](OCCNC(=O)OC)c2cccc(Cl)c2)C1)C[C@H]1CCCOC1.O=C(O)c1cc2ccccc2c(Cc2c(O)c(C(=O)O)cc3ccccc23)c1O [Compound E, 2:1 pamoate salt of methyl 2-((R)-(3-chlorophenyl)((R)-1-((S)-2-(methylamino)-3-((R)-tetrahydro-2H-pyran-3-yl)propylcarbamoyl)piperidin-3-yl)methoxy)ethylcarbamate]
- DNAUC (Dose-Normalized Area Under the Curve, blood) [2, 6]: 0.0067 kg·h/L
- Oral Bioavailability (%) [2, 6]: 5%
- in vivo oral bioavailability ([2]; statement in the background section, species not given): low
